Test results published in ChEMBL document CHEMBL1201862, “PubChem BioAssay data set” (2004).
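Briefly, cells in 96-well plates were exposed to five compound concentrations for 48 h, and endpoints were estimated by linear interpolation. Here, GI50 denotes the concentration required for 50% inhibition of growth.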 Active and inactive are the calls of the source. Cut-off read from the data, not from the text of the source: active = GI50 up to about 1.1 µM and inactive = higher.

Columns and labels:
Assay in all cases: NCI-60 cell line screen, 48 h
[1] = tested on: MOLT-4
[2] = tested on: SW-620
[3] = tested on: M14
[4] = tested on: HCC 2998
[5] = tested on: OVCAR-8
[6] = tested on: T47D
[7] = tested on: UO-31
[8] = tested on: CCRF-CEM
[9] = tested on: OVCAR-3
[10] = tested on: IGROV-1
[11] = tested on: NCI/ADR-RES
[12] = tested on: SK-MEL-28
[13] = tested on: NCI-H460
[14] = tested on: MCF7
[15] = tested on: SK-OV-3
[16] = tested on: 786-0
[17] = tested on: MDA-MB-435
[18] = tested on: SNB-19
[19] = tested on: U-251
[20] = tested on: BT-549
[21] = tested on: UACC-257
[22] = tested on: HOP-62
[23] = tested on: HCT-15
[24] = tested on: SF-295
[25] = tested on: OVCAR-4
[26] = tested on: Hs-578T
[27] = tested on: SK-MEL-5
[28] = tested on: LOX IMVI
[29] = tested on: A549
[30] = tested on: OVCAR-5
[31] = tested on: MDA-MB-231
[32] = tested on: HOP-92
[33] = tested on: UACC-62
[34] = tested on: K562
[35] = tested on: SF-539
[36] = tested on: ACHN
[37] = tested on: HCT-116
[38] = tested on: KM12
[39] = tested on: SK-MEL-2
[40] = tested on: SNB-75
[41] = tested on: PC-3
[42] = tested on: DU-145
[43] = tested on: NCI-H522
[44] = tested on: HT-29
[45] = tested on: Malme-3M
[46] = tested on: RXF 393
[47] = tested on: TK-10
[48] = tested on: MDA-N
[49] = tested on: SN12C
[50] = tested on: NCI-H23
[51] = tested on: EKVX
[52] = tested on: CAKI-1
[53] = tested on: SF-268
[54] = tested on: COLO 205
[55] = tested on: RPMI-8226
[56] = tested on: NCI-H226
[57] = tested on: A498
[58] = tested on: HL-60
[59] = tested on: SR

COc1cc(-c2coc3c(OC)c(OC4OC(COC5OC(C)C(O)C(O)C5O)C(O)C(O)C4O)c(OC)c(O)c3c2=O)cc(C)c1O (stereo not drawn)
GI50 [1]: 3.73 µM (inactive) | GI50 [2]: 12.7 µM (inactive) | GI50 [3]: 15.5 µM (inactive) | GI50 [4]: 16.1 µM (inactive) | GI50 [5]: 23.6 µM (inactive) | GI50 [6]: 15.5 µM (inactive) | GI50 [7]: 16.6 µM (inactive) | GI50 [8]: 5.93 µM (inactive) | GI50 [9]: 13.7 µM (inactive) | GI50 [10]: 17 µM (inactive) | GI50 [11]: 17.9 µM (inactive) | GI50 [12]: 15.1 µM (inactive) | GI50 [13]: 23.2 µM (inactive) | GI50 [14]: 12.3 µM (inactive) | GI50 [15]: 16.8 µM (inactive) | GI50 [16]: 0.178 µM (active) | GI50 [17]: 16 µM (inactive) | GI50 [18]: 13.8 µM (inactive) | GI50 [19]: 15.5 µM (inactive) | GI50 [20]: 13.9 µM (inactive) | GI50 [21]: 22.3 µM (inactive) | GI50 [22]: 22.1 µM (inactive) | GI50 [23]: 16.4 µM | GI50 [24]: 16.6 µM (inactive) | GI50 [25]: 18.9 µM (inactive) | GI50 [26]: 20.7 µM (inactive) | GI50 [27]: 12.6 µM (inactive) | GI50 [28]: 16.5 µM (inactive) | GI50 [29]: 23.8 µM (inactive) | GI50 [30]: 21.7 µM (inactive) | GI50 [31]: 32.5 µM (inactive) | GI50 [32]: 19.2 µM (inactive) | GI50 [33]: 14.3 µM (inactive) | GI50 [34]: 13.4 µM (inactive) | GI50 [35]: 21.3 µM (inactive) | GI50 [36]: 21.2 µM (inactive) | GI50 [37]: 0.185 µM (active) | GI50 [38]: 11.7 µM (inactive) | GI50 [39]: 23.8 µM (inactive) | GI50 [40]: 16 µM (inactive) | GI50 [41]: 24.8 µM (inactive) | GI50 [42]: 19.6 µM (inactive) | GI50 [43]: 12.7 µM (inactive) | GI50 [44]: 19.5 µM (inactive) | GI50 [45]: 18.3 µM (inactive) | GI50 [46]: 13 µM (inactive) | GI50 [47]: 34.8 µM (inactive) | GI50 [48]: 0.873 µM (active) | GI50 [49]: 1.68 µM (inactive) | GI50 [50]: 13.1 µM (inactive) | GI50 [51]: 17.2 µM (inactive) | GI50 [52]: 18 µM (inactive) | GI50 [53]: 19.4 µM (inactive) | GI50 [54]: 19.6 µM (inactive)

CC(/C=N\NC(=S)N(C)C)=N/NC(=S)N(C)C
GI50 [1]: 0.0397 µM (active) | GI50 [2]: 0.0832 µM (active) | GI50 [3]: 0.393 µM (active) | GI50 [4]: 2.49 µM (inactive) | GI50 [5]: 0.308 µM (active) | GI50 [6]: 0.0935 µM (active) | GI50 [7]: 0.158 µM (active) | GI50 [9]: 0.317 µM (active) | GI50 [10]: 0.575 µM (active) | GI50 [11]: 0.202 µM (active) | GI50 [12]: 4.52 µM (inactive) | GI50 [13]: 0.0412 µM (active) | GI50 [14]: 0.759 µM (active) | GI50 [15]: 0.484 µM (active) | GI50 [16]: 0.509 µM (active) | GI50 [17]: 0.881 µM (active) | GI50 [55]: 0.791 µM (active) | GI50 [18]: 0.721 µM (active) | GI50 [19]: 0.29 µM (active) | GI50 [20]: 1.93 µM (inactive) | GI50 [21]: 2.61 µM (inactive) | GI50 [22]: 0.327 µM (active) | GI50 [23]: 0.07 µM | GI50 [24]: 0.147 µM (active) | GI50 [25]: 5.16 µM (inactive) | GI50 [26]: 1.65 µM (inactive) | GI50 [27]: 0.505 µM (active) | GI50 [28]: 0.273 µM (active) | GI50 [29]: 0.142 µM (active) | GI50 [30]: 10.9 µM (inactive) | GI50 [31]: 29 µM (inactive) | GI50 [32]: 1.84 µM (inactive) | GI50 [33]: 0.764 µM (active) | GI50 [34]: 0.582 µM (active) | GI50 [35]: 0.74 µM (active) | GI50 [36]: 0.113 µM (active) | GI50 [37]: 0.117 µM (active) | GI50 [38]: 1.78 µM (inactive) | GI50 [39]: 0.303 µM (active) | GI50 [40]: 0.557 µM (active) | GI50 [41]: 0.577 µM (active) | GI50 [56]: 0.843 µM (active) | GI50 [42]: 0.195 µM (active) | GI50 [43]: 0.243 µM (active) | GI50 [57]: 2.88 µM (inactive) | GI50 [44]: 0.0995 µM (active) | GI50 [45]: 0.995 µM (active) | GI50 [46]: 0.586 µM (active) | GI50 [47]: 0.507 µM (active) | GI50 [48]: 8.93 µM (inactive) | GI50 [49]: 0.951 µM (active) | GI50 [50]: 1.12 µM (inactive) | GI50 [51]: 0.832 µM (active) | GI50 [52]: 0.815 µM (active) | GI50 [53]: 0.251 µM (active) | GI50 [54]: 0.497 µM (active)

Cc1cc(OCC(=O)O)c(Cl)cc1Cl
GI50 [1]: > 100 µM (inactive) | GI50 [2]: > 100 µM (inactive) | GI50 [3]: > 100 µM (inactive) | GI50 [4]: > 100 µM (inactive) | GI50 [5]: > 100 µM (inactive) | GI50 [6]: > 100 µM (inactive) | GI50 [7]: > 100 µM (inactive) | GI50 [9]: > 100 µM (inactive) | GI50 [10]: > 100 µM (inactive) | GI50 [11]: > 100 µM (inactive) | GI50 [12]: > 100 µM (inactive) | GI50 [13]: > 100 µM (inactive) | GI50 [16]: > 100 µM (inactive) | GI50 [17]: > 100 µM (inactive) | GI50 [55]: 81.3 µM (inactive) | GI50 [18]: > 100 µM (inactive) | GI50 [19]: > 100 µM (inactive) | GI50 [20]: > 100 µM (inactive) | GI50 [21]: > 100 µM (inactive) | GI50 [22]: > 100 µM (inactive) | GI50 [23]: > 100 µM | GI50 [24]: > 100 µM (inactive) | GI50 [25]: > 100 µM (inactive) | GI50 [26]: > 100 µM (inactive) | GI50 [27]: > 100 µM (inactive) | GI50 [28]: > 100 µM (inactive) | GI50 [29]: > 100 µM (inactive) | GI50 [30]: > 100 µM (inactive) | GI50 [31]: > 100 µM (inactive) | GI50 [32]: > 100 µM (inactive) | GI50 [33]: > 100 µM (inactive) | GI50 [34]: > 100 µM (inactive) | GI50 [58]: > 100 µM (inactive) | GI50 [36]: > 100 µM (inactive) | GI50 [37]: > 100 µM (inactive) | GI50 [59]: > 100 µM (inactive) | GI50 [38]: > 100 µM (inactive) | GI50 [39]: > 100 µM (inactive) | GI50 [41]: > 100 µM (inactive) | GI50 [56]: > 100 µM (inactive) | GI50 [42]: > 100 µM (inactive) | GI50 [43]: > 100 µM (inactive) | GI50 [57]: > 100 µM (inactive) | GI50 [44]: > 100 µM (inactive) | GI50 [45]: > 100 µM (inactive) | GI50 [46]: > 100 µM (inactive) | GI50 [47]: > 100 µM (inactive) | GI50 [48]: > 100 µM (inactive) | GI50 [49]: > 100 µM (inactive) | GI50 [50]: > 100 µM (inactive) | GI50 [51]: > 100 µM (inactive) | GI50 [52]: > 100 µM (inactive) | GI50 [53]: > 100 µM (inactive)
